Laboratory results as given in patent publication US20130281398A1, “TREATMENT OF DISEASES BY EPIGENETIC REGULATION” (RVX Therapeutics Inc., priority 2012, published 2013).

Experiments:
c-myc = assay: Inhibition of c-myc expression (mRNA, real-time PCR) in MV4-11 cells; type: cell-based; set-up: key: Active: Compounds with an IC50 value less than 30 uM were deemed to be active; conditions: c-myc mRNA in human AML MV4-11 cells, 3 hours incubation
Protocol: MV4-11 cells (2.5×10^4 cells) were plated in 96 well U-bottom plates with test compound or DMSO (0.1%), and incubated for 3 hours at 37° C. Cells were then harvested by centrifugation, lysed, and mRNA was isolated using the mRNA catcher plus kit (Invitrogen). Reverse transcription of the mRNA and duplex amplification of the c-myc and cyclophilin cDNAs was performed using the RNA Ultrasense kit (Invitrogen) and a ViiA7 real-time PCR machine (Applied Biosystems). IC50 values were determined from a dose response curve.

Human AML MV-4-11 cells = assay: Inhibition of cell proliferation in human AML MV-4-11 cells; type: cell-based; set-up: key: Active: Compounds with an IC50 value less than 30 uM were deemed to be active; conditions: 72 hours, CellTiter Aqueous One
Protocol: MV4-11 cells: 96-well plates were seeded with 5×10^4 cells per well of exponentially growing human AML MV-4-11 (CRL-9591) cells and immediately treated with two-fold dilutions of test compounds, ranging from 30 μM to 0.2 μM. Triplicate wells were used for each concentration, as well as a media only and three DMSO control wells. The cells and compounds were incubated at 37° C., 5% CO2 for 72 hours before adding 20 μL of the CellTiter Aqueous One Solution (Promega) to each well and incubating at 37° C., 5% CO2 for an additional 3-4 hours. The absorbance was taken at 490 nm in a spectrophotometer and the percentage of proliferation relative to DMSO-treated cells was calculated after correction from the blank well. IC50 were calculated using the GraphPad Prism software.

Brd4 bromodomain 1 = biological target: T1, Brd4 bromodomain 1 (Homo sapiens, UniProt O60885); assay: TR-FRET inhibition of tetra-acetylated histone H4 binding to Brd4 bromodomain 1; conditions: tetra-acetylated histone H4 peptide and Brd4 bromodomain 1, 2 hours at room temperature
T1 construct: Illustrative results with the first bromodomain of Brd4; made in house; host or cells: E. coli BL21(DE3)
Protocol: Proteins were cloned and overexpressed with a N-terminal 6×His tag, then purified by nickel affinity followed by size exclusion chromatography. Briefly, E. coli BL21(DE3) cells were transformed with a recombinant expression vector encoding N-terminally Nickel affinity tagged bromodomains from Brd2, Brd3, Brd4. Cell cultures were incubated at 37° C. with shaking to the appropriate density and induced overnight with IPTG. The supernatant of lysed cells was loaded onto Ni-IDA column for purification. Eluted protein was pooled, concentrated and further purified by size exclusion chromatography. Fractions representing monomeric protein are pooled, concentrated, aliquoted, and frozen at −80° C. for use in subsequent experiments.
Binding of tetra-acetylated histone H4 and BET bromodomains was confirmed by a Time Resolved Fluorescence Resonance Energy Transfer (TR-FRET) method. N-terminally His-tagged bromodomains (200 nM) and biotinylated tetra-acetylated histone H4 peptide (25-50 nM, Millipore) were incubated in the presence of Europium Cryptate-labeled streptavidin (Cisbio Cat. #610SAKLB) and XL665-labeled monoclonal anti-His antibody (Cisbio Cat. #61 HISXLB) in a white 96 well microtiter plate (Greiner). For inhibition assays, serially diluted test compound was added to these reactions in a 0.2% final concentration of DMSO. Final buffer concentrations were 30 mM HEPES pH 7.4, 30 mM NaCl, 0.3 mM CHAPS, 20 mM phosphate pH 7.0, 320 mM KF, 0.08% BSA). After 2 hours incubation at room temperature, the fluorescence by FRET was measured at 665 and 620 nm by a SynergyH4 plate reader (Biotek). The binding inhibitory activity was shown by a decrease in 665 nm fluorescence relative to 620 nm. IC50 values were determined from a dose response curve.

IL-6 = conditions: in vivo; cited from earlier work
[1] = system: bacterial-induced inflammation and sepsis; conditions: murine model; Lamotte et al. (2012); cited from earlier work
[2] = system: NUT (nuclear protein in testis) midline carcinoma (NMC); conditions: murine xenograft models of NMC; Filippakopoulos et al. (2010); cited from earlier work
multiple myeloma = conditions: associated with cell cycle arrest and cellular senescence, Delmore et al. (2011); cited from earlier work

FRET activity (<50 uM) (Brd4 bromodomain 1)	Structure (SMILES)	other results
Active	COc1cc(OC)c2c(=O)[nH]c(-c3cc(C)c(CNC(C)=O)c(C)c3)nc2c1 [Example 32, N-(4-(5,7-dimethoxy-4-oxo-3,4-dihydroquinazolin-2-yl)-2,6-dimethylbenzyl)acetamide]	c-myc activity (<30 uM) (c-myc): Inactive; cell proliferation activity (<30 uM) (Human AML MV-4-11 cells): Inactive
Active	COc1cc(OC)c2c(=O)[nH]c(-c3cc(C)c(CNC(C)=O)c(C)c3)nc2n1 [Example 33, N-[4-(5,7-dimethoxy-4-oxo-3,4-dihydro-pyrido[2,3-d]pyrimidin-2-yl)-2,6-dimethyl-benzyl]-acetamide]	
Inactive	COc1cc(OC)c2c(=O)[nH]c(-c3cc(C)c(OCCNCC(F)(F)F)c(C)c3)nc2c1 [Example 34, 2-{3,5-dimethyl-4-[2-(2,2,2-trifluoro-ethylamino)-ethoxy]-phenyl}-5,7-dimethoxy-3H-quinazolin-4-one]	
Active	COc1cc(OC)c2c(=O)[nH]c(-c3cc(C)c(OCCNC=O)c(C)c3)cc2c1 [Example 35, N-{2-[4-(6,8-dimethoxy-1-oxo-1,2-dihydro-isoquinolin-3-yl)-2,6-dimethyl-phenoxy]-ethyl}-formamide]	
Active	CNCCOc1c(C)cc(-c2nc3cc(OC)cc(OC)c3c(=O)[nH]2)cc1C [Example 36, 2-(3,5-dimethyl-4-(2-(methylamino)ethoxy)phenyl)-5,7-dimethoxyquinazolin-4(3H)-one]	
Active	COc1cc(OC)c2c(=O)[nH]c(-c3cc(C)c(OCCNS(=O)(=O)C(C)C)c(C)c3)nc2c1 [Example 37, N-(2-(4-(5,7-dimethoxy-4-oxo-3,4-dihydroquinazolin-2-yl)-2,6-dimethylphenoxy)ethyl)propane-2-sulfonamide]	
Active	COc1cc(OC)c2c(=O)[nH]c(-c3cc(C)c(OCCNC(C)C)c(C)c3)nc2c1 [Example 38, 2-(4-(2-(isopropylamino)ethoxy)-3,5-dimethylphenyl)-5,7-dimethoxyquinazolin-4(3H)-one]	c-myc activity (<30 uM) (c-myc): Active; cell proliferation activity (<30 uM) (Human AML MV-4-11 cells): Active
Active	COc1cc(OC)c2c(=O)[nH]c(-c3ccc(OCCNC(C)=O)c(C)c3)nc2c1 [Example 39, N-(2-(4-(5,7-dimethoxy-4-oxo-3,4-dihydroquinazolin-2-yl)-2-methylphenoxy)ethyl)acetamide]	
Active	COc1cc(OC)c2c(=O)[nH]c(-c3cc(C)c(OCCN(C)C)c(C)c3)nc2c1 [Example 40, 2-(4-(2-(dimethylamino)ethoxy)-3,5-dimethylphenyl)-5,7-dimethoxyquinazolin-4(3H)-one]	
Active	COc1cc(OC)c2c(=O)[nH]c(-c3cc(C)c(OCCN(C)C(C)=O)c(C)c3)nc2c1 [Example 41, N-(2-(4-(5,7-dimethoxy-4-oxo-3,4-dihydroquinazolin-2-yl)-2,6-dimethylphenoxy)ethyl)-N-methylacetamide]	
Active	COc1cc(OC)c2c(=O)[nH]c(-c3cc(C)c(OCCNC=O)c(C)c3)nc2c1 [Example 42, N-(2-(4-(5,7-dimethoxy-4-oxo-3,4-dihydroquinazolin-2-yl) 2,6-dimethylphenoxy)ethyl)formamide]	
Active	COc1cc(OC)c2c(=O)[nH]c(-c3cc(C)c(OCCN(C)C=O)c(C)c3)nc2c1 [Example 43, N-(2-(4-(5,7-dimethoxy-4-oxo-3,4-dihydroquinazolin-2-yl) 2,6-dimethylphenoxy)ethyl)-N-methylformamide]	
Active	COc1cc(OC)c2c(=O)[nH]c(-c3cc(C)c(OCCNS(=O)(=O)N(C)C)c(C)c3)nc2c1 [Example 44, N-(2-(4-(5,7-dimethoxy-4-oxo-3,4-dihydroquinazolin-2-yl)-2,6-dimethylphenoxy)ethyl)dimethylamino-N-sulfonamide]	
Active	COc1cc(OC)c2c(=O)[nH]c(-c3cc(C)c(OCCNC#N)c(C)c3)nc2c1 [Example 45, N-(2-(4-(5,7-dimethoxy-4-oxo-3,4-dihydroquinazolin-2-yl) 2,6-dimethylphenoxy)ethyl)cyanamide]	
Active	COc1cc(OC)c2c(=O)[nH]c(-c3cc(C)c(OCCNc4cc(C)on4)c(C)c3)nc2c1 [Example 46, 2-(3,5-dimethyl-4-(2-(5-methylisoxazol-3-ylamino)ethoxy)phenyl)-5,7-dimethoxyquinazolin-4(3H)-one]	
Inactive	COc1cc(OC)c2c(=O)[nH]c(-c3cc(C)c(OCCNc4ncccn4)c(C)c3)nc2c1 [Example 47, 2-(3,5-dimethyl-4-(2-(pyrimidin-2-ylamino)ethoxy)phenyl)-5,7-dimethoxyquinazolin-4(3H)-one]	
Active	COc1cc(OC)c2c(=O)[nH]c(-c3cc(C)c(OCCNc4ccon4)c(C)c3)nc2c1 [Example 48, 2-(4-(2-(isoxazol-3-ylamino)ethoxy)-3,5-dimethylphenyl)-5,7-dimethoxyquinazolin-4(3H)-one]	
Inactive	COc1cc(OC)c2c(=O)[nH]c(-c3cc(C)c(OCCNc4nc(OC)cc(OC)n4)c(C)c3)nc2c1 [Example 49, 2-(4-(2-(4,6-dimethoxypyrimidin-2-ylamino)ethoxy)-3,5-dimethylphenyl)-5,7-dimethoxyquinazolin-4(3H)-one]	
Active	COc1cc(OC)c2c(=O)[nH]c(-c3cc(OC)c(CCCO)c(OC)c3)nc2c1 [Example 50, 2-[4-(3-hydroxy-propyl)-3,5-dimethoxyphenyl]-5,7-dimethoxy-3H-quinazolin-4-one]	
Active	COc1cc(OC)c2c(=O)[nH]c(-c3ccc(CCCO)c(OC)c3)nc2c1 [Example 51, 2-[4-(3-hydroxy-propyl)-3-methoxy-phenyl]-5,7-dimethoxy-3H-quinazolin-4-one]	
Active	COc1cc(OC)c2c(=O)[nH]c(-c3ccc4cc(CCO)[nH]c4c3)nc2c1 [Example 52, 2-[2-(2-hydroxyethyl)-1H-indol-6-yl]-5,7-dimethoxy-3H-quinazolin-4-one]	
	COc1cc2c(cc1-c1c(C)noc1C)ncc1[nH]c(=O)n([C@H](C)c3ccccn3)c12 [I-BET151]	IL-6 expression (IL-6): decrease IL-6 expression; bacterial-induced inflammation and sepsis [1]: suppress bacterial-induced inflammation and sepsis
	CCNC(=O)C[C@@H]1N=C(c2ccc(Cl)cc2)c2cc(OC)ccc2-n2c(C)nnc21 [I-BET]	IL-6 expression (IL-6): decrease IL-6 expression
	Cc1sc2c(c1C)C(c1ccc(Cl)cc1)=N[C@@H](CC(=O)OC(C)(C)C)c1nnc(C)n1-2 [JQ1]	antitumor activity [2]: potent antitumor activity; antiproliferative effect (multiple myeloma): potent antiproliferator
